Assay results as given in patent US8258293B2, “Tetrahydroquinoline derivatives” (MSD OSS B.V., priority 2001, dated 2012).

Molecular target: T1, human FSH receptor (Homo sapiens, UniProt P23945)
T1 construct: expressed in transfected cells; host or cells: Chinese Hamster Ovary (CHO) cells
T1 sequence (P23945 18-695): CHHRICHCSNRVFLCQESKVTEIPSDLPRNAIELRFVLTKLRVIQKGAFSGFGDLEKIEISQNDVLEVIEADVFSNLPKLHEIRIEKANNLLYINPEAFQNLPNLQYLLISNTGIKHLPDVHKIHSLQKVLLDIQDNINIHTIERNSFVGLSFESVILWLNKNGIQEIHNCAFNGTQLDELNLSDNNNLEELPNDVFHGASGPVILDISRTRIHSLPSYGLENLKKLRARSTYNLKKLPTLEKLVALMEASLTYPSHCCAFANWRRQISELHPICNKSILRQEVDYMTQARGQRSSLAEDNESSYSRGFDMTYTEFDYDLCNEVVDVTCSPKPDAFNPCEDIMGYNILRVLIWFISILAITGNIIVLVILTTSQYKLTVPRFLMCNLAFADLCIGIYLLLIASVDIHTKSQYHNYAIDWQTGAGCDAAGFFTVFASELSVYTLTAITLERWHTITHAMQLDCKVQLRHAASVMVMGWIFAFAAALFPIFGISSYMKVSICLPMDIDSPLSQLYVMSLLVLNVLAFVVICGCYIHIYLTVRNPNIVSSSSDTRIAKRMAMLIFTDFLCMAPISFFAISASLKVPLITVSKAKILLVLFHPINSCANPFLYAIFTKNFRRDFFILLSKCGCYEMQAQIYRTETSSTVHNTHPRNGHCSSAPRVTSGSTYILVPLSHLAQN
Test: CHO-FSH in vitro bio activity (CRE-luciferase reporter)
Type: cell-based
Details: CHO cells stably transfected with human FSH receptor and CRE/luciferase reporter; half-maximal (50%) stimulation
Method: FSH activity of compounds were tested in Chinese Hamster Ovary (CHO) cells stably transfected with the human FSH receptor and cotransfected with a cAMP responsive element (CRE)/promotor directing the expression of a firefly luciferase reporter gene. Binding of ligand to the Gs-coupled FSH receptor will result in an increase of cAMP, which in turn will induce an increased transactivation of the luciferase reporter construct. The luciferase signal was quantified using a luminescence counter. For test compounds, EC50 values (concentration of test compound causing half-maximal (50%) stimulation) were calculated. For that purpose the software program GraphPad PRISM, version 3.0 (GraphPad software Inc., San Diego) was used.

Row | EC50 | SMILES
1 | < 100 nM | CC(=O)N1c2ccc(NC(=O)c3ccco3)cc2C(C)(c2ccccc2)CC1(C)C (stereo not shown) [Example 22, 1-Acetyl-6-(2-furoyl)amino-4-phenyl-1,2,3,4-tetrahydro-2,2,4-trimethylquinoline]
2 | < 100 nM | COc1ccc(COC(=O)c2ccc3c(c2)C(C)(c2ccccc2)CC(C)(C)N3C(C)=O)cc1 (stereo not shown) [Example 36, 1-Acetyl-6-(4-methoxybenzyloxy)carbonyl-4-phenyl-1,2,3,4-tetrahydro-2,2,4-trimethylquinoline]
3 | < 100 nM | CC(=O)N1c2ccc(NC(=O)CCc3ccccc3)cc2C(C)(c2ccccc2)CC1(C)C (stereo not shown) [Example 21, 1-Acetyl-4-phenyl-6-(3-phenylpropionyl)amino-1,2,3,4-tetrahydro-2,2,4-trimethylquinoline]
4 | < 100 nM | CC(=O)N1c2ccc(NC(=O)c3ccccc3OS(C)(=O)=O)cc2C(C)(c2ccccc2)CC1(C)C (stereo not shown) [Example 58, 1-Acetyl-6-(2-methylsulfonyloxybenzoyl)amino-4-phenyl-1,2,3,4-tetrahydro-2,2,4-trimethylquinoline]
5 | < 100 nM | CC(=O)N1c2ccc(NC(=O)c3ccc(Cl)cc3)cc2C(C)(c2ccccc2)CC1(C)C (stereo not shown) [Example 6, 1-Acetyl-6-(4-chlorobenzoyl)amino-4-phenyl-1,2,3,4-tetrahydro-2,2,4-trimethylquinoline]
6 | < 100 nM | CC(=O)N1c2ccc(NC(=O)c3ccc([N+](=O)[O-])cc3)cc2C(C)(c2ccccc2)CC1(C)C (stereo not shown) [Example 9, 1-Acetyl-6-(4-nitrobenzoyl)amino-4-phenyl-1,2,3,4-tetrahydro-2,2,4-trimethylquinoline]
7 | < 100 nM | CC(=O)N1c2cc(C)c(NC(=O)c3ccc(-c4ccccc4)cc3)cc2C(C)(c2ccccc2)CC1(C)C (stereo not shown) [Example 45, 1-Acetyl-6-(4-phenylbenzoyl)amino-4-phenyl-1,2,3,4-tetrahydro-2,2,4,7-tetramethylquinoline]
8 | < 100 nM | CC(=O)N1c2ccc(NC(=O)CN3CCN(c4ccccc4)CC3)cc2C(C)(c2ccccc2)CC1(C)C (stereo not shown) [Example 30, 1-Acetyl-6-([4-{1-phenyl}-piperazinyl]methylcarbonyl)amino-4-phenyl-1,2,3,4-tetrahydro-2,2,4-trimethylquinoline]
9 | < 100 nM | CC(=O)N1c2ccc(NC(=O)c3ccc(C(F)(F)F)cc3)cc2C(C)(c2ccccc2)CC1(C)C (stereo not shown) [Example 8, 1-Acetyl-4-phenyl-1,2,3,4-tetrahydro-6-(4-[trifluoromethyl]benzoyl)amino-2,2,4-trimethylquinoline]
10 | < 100 nM | CNc1ccc(Br)cc1C(=O)Nc1ccc2c(c1)C(C)(c1ccccc1)CC(C)(C)N2C(C)=O (stereo not shown) [Example 51, 1-Acetyl-6-(5-bromo-2-methylaminobenzoyl)amino-4-phenyl-1,2,3,4-tetrahydro-2,2,4-trimethylquinoline]
11 | < 100 nM | CC(=O)N1c2ccc(NC(=O)c3ccc(-c4ccccc4)cc3)cc2C(C)(c2ccccc2)CC1(C)C (stereo not shown) [Example 12, 1-Acetyl-4-phenyl-6-(4-phenylbenzoyl)amino-1,2,3,4-tetrahydro-2,2,4-trimethylquinoline]
12 | < 100 nM | CC(=O)N1c2ccc(NC(=O)c3cccc(C)c3-c3ccccc3)cc2C(C)(c2ccccc2)CC1(C)C (stereo not shown) [Example 16, 1-Acetyl-4-phenyl-6-(2-phenyl-3-methylbenzoyl)amino-1,2,3,4-tetrahydro-2,2,4-trimethylquinoline]
13 | < 100 nM | CCCc1ccc(C(=O)Nc2ccc3c(c2)C(C)(c2ccccc2)CC(C)(C)N3C(C)=O)cc1 (stereo not shown) [Example 10, 1-Acetyl-4-phenyl-6-(4-n-propylbenzoyl)amino-1,2,3,4-tetrahydro-2,2,4-trimethylquinoline]
14 | < 100 nM | CC(=O)N1c2ccc(NC(=O)c3ccccc3OC(=O)N3CCOCC3)cc2C(C)(c2ccccc2)CC1(C)C (stereo not shown) [Example 63, 1-Acetyl-6-(2-[morpholino-4-carbonyl]oxybenzoyl)amino-4-phenyl-1,2,3,4-tetrahydro-2,2,4-trimethylquinoline]
15 | < 100 nM | COc1ccc(Br)c(OC)c1C(=O)Nc1ccc2c(c1)C(C)(c1ccccc1)CC(C)(C)N2C(C)=O (stereo not shown) [Example 11, 1-Acetyl-6-(3-bromo-2,6-dimethoxybenzoyl)amino-4-phenyl-1,2,3,4-tetrahydro-2,2,4-trimethylquinoline]
16 | < 100 nM | CC(=O)N1c2ccc(OC(=O)c3ccc(-c4ccccc4)cc3)cc2C(C)(c2ccccc2)CC1(C)C (stereo not shown) [Example 37, 1-Acetyl-6-(4-phenylbenzoyl)oxy-4-phenyl-1,2,3,4-tetrahydro-2,2,4-trimethylquinoline]
17 | < 100 nM | CC(=O)N1c2ccc(NC(=O)c3ccccc3OC(=O)c3cc(C)on3)cc2C(C)(c2ccccc2)CC1(C)C (stereo not shown) [Example 61, 1-Acetyl-6-(2-[5-methylisoxazole-3-carbonyl]oxybenzoyl)amino-4-phenyl-1,2,3,4-tetrahydro-2,2,4-trimethylquinoline]
18 | < 100 nM | COc1c(Cl)cc(Cl)c(OC)c1C(=O)Nc1ccc2c(c1)C(C)(c1ccccc1)CC(C)(C)N2C(C)=O (stereo not shown) [Example 53, 1-Acetyl-6-(3,5-dichloro-2,6-dimethoxybenzoyl)amino-4-phenyl-1,2,3,4-tetrahydro-2,2,4-trimethylquinoline]
19 | < 100 nM | CC(=O)N1c2ccc(NC(=O)c3cc(Br)cc(Br)c3)cc2C(C)(c2ccccc2)CC1(C)C (stereo not shown) [Example 50, 1-Acetyl-6-(3,5-dibromobenzoyl)amino-4-phenyl-1,2,3,4-tetrahydro-2,2,4-trimethylquinoline]
20 | < 100 nM | CC(=O)N1c2ccc(NC(=O)CC(C)C)cc2C(C)(c2ccccc2)CC1(C)C (stereo not shown) [Example 23, 1-Acetyl-6-(isovaleryl)amino-4-phenyl-1,2,3,4-tetrahydro-2,2,4-trimethylquinoline]
21 | < 100 nM | CC(=O)N1c2ccc(NC(=O)c3ccccc3)cc2C(C)(c2ccccc2)CC1(C)C (stereo not shown) [Example 7, 1-Acetyl-6-benzoylamino-4-phenyl-1,2,3,4-tetrahydro-2,2,4-trimethylquinoline]
22 | < 100 nM | COc1cc(C(=O)Nc2ccc3c(c2)C(C)(c2ccccc2)CC(C)(C)N3C(C)=O)cc(OC)c1OC (stereo not shown) [Example 52, 1-Acetyl-6-(3,4,5-trimethoxybenzoyl)amino-4-phenyl-1,2,3,4-tetrahydro-2,2,4-trimethylquinoline]
23 | < 100 nM | COc1ccc(-c2ccccc2)c(C(=O)Nc2ccc3c(c2)C(C)(c2ccccc2)CC(C)(C)N3C(C)=O)c1 (stereo not shown) [Example 15, 1-Acetyl-4-phenyl-6-(2-phenyl-5-methoxybenzoyl)amino-1,2,3,4-tetrahydro-2,2,4-trimethylquinoline]
24 | < 100 nM | CC(=O)N1c2ccc(NC(=O)c3ccc(-c4ccc(Cl)cc4)cc3)cc2C(C)(c2ccccc2)CC1(C)C (stereo not shown) [Example 13, 1-Acetyl-6-(4-[4-chlorophenyl]benzoyl)amino-4-phenyl-1,2,3,4-tetrahydro-2,2,4-trimethylquinoline]
25 | < 100 nM | COc1cc(NC(=O)c2ccc(-c3ccccc3)cc2)cc2c1N(C(C)=O)C(C)(C)CC2(C)c1ccccc1 (stereo not shown) [Example 46, 1-Acetyl-6-(4-phenylbenzoyl)amino-8-methoxy-4-phenyl-1,2,3,4-tetrahydro-2,2,4-trimethylquinoline]
26 | < 100 nM | CC(=O)N1c2ccc(NC(=O)CCC34CC5CC(CC(C5)C3)C4)cc2C(C)(c2ccccc2)CC1(C)C (stereo not shown) [Example 24, 1-Acetyl-6-(3-[adamantan-1-yl]propionyl)amino-4-phenyl-1,2,3,4-tetrahydro-2,2,4-trimethylquinoline]
27 | < 100 nM | CC(=O)N1c2ccc(NC(=O)c3ccccc3Nc3ccccc3)cc2C(C)(c2ccccc2)CC1(C)C (stereo not shown) [Example 64, 1-Acetyl-6-(2-phenylaminobenzoyl)amino-4-phenyl-1,2,3,4-tetrahydro-2,2,4-trimethylquinoline]

Row | SMILES | EC50
28 | CC(=O)N1c2ccc(NC(=O)OC(C)(C)C)cc2C(C)(c2ccccc2)CC1(C)C (stereo not shown) [Example 1, 1-Acetyl-6-(tert-butoxycarbonyl)amino-4-phenyl-1,2,3,4-tetrahydro-2,2,4-trimethylquinoline] | < 100 nM
